In ChEMBL document CHEMBL1909604, “A novel potential therapeutic avenue for autism: design, synthesis and pharmacophore generation of SSRIs with dual action” (Bioorg Med Chem Lett, 2011):
pKi: −log10 of the molar value.

Assays:
[1] = biological target: 5-hydroxytryptamine receptor 1D (Homo sapiens, UniProt P28221); experiment: Displacement of [3H]GR125743 from recombinant human 5-HT1D receptor expressed in HEK cells by scintillation counting; type: cell-based, HEK293
[2] = biological target: 5-hydroxytryptamine receptor 1B (Homo sapiens, UniProt P28222); experiment: Displacement of [3H]carboxytryptamine from recombinant human 5-HT1B receptor expressed in HEK cells by scintillation counting; type: cell-based, HEK293
5-hydroxytryptamine receptor 1B, sequence (P28222 whole entry): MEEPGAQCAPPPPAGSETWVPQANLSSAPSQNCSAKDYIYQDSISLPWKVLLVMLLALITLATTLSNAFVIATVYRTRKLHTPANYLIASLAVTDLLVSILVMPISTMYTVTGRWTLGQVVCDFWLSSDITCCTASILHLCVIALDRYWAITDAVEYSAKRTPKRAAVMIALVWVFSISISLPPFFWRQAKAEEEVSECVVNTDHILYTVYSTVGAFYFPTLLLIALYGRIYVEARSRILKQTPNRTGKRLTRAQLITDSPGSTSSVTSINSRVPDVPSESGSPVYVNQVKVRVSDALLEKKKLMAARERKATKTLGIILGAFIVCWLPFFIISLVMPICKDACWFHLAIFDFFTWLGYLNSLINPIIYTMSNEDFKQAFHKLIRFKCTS

5-hydroxytryptamine receptor 1D, sequence (P28221 whole entry): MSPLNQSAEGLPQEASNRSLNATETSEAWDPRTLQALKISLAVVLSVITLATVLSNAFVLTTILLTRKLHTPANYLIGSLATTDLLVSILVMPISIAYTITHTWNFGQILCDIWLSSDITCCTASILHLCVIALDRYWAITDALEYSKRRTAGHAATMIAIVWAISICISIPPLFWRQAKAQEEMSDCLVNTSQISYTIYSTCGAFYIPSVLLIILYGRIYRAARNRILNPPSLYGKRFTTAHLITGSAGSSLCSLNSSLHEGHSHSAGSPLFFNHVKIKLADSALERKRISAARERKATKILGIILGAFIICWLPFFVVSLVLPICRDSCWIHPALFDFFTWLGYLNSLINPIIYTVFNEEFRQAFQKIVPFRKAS

pKi [1]: 7.36 | pKi [2]: 6.92
Structure (SMILES): COc1ccc(NC(=O)c2ccc3c(c2)N(C)C(=O)CN3c2ccc(Cl)c(Cl)c2)cc1N1CCN(C)CC1
